Test system: 186277-243-T-J2-PDC spheroids with HUVEC/MSC, viability
Experiment: Anticancer human tumor 186277-243-T-J2-PDC patient-derived colon adenocarcinoma cell line growth inhibition [CLK]
Conditions: for IC50: curve of first compound; for viability, T/C: stronger effect = lower value
In short: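 Multi-cell-type spheroids combined patient-derived tumor cells with HUVEC endothelial cells and human mesenchymal stem cells. Paired agents were dosed in half-log steps down from about clinical Cmax, or from 10 microM where Cmax was unknown.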
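Note: compound exposure lasted seven days before readout.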
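Throughout, for viability, T/C: 100% = DMSO vehicle control wells.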

C=CC(=O)Nc1cc(Nc2nccc(-c3cn(C)c4ccccc34)n2)c(OC)cc1N(C)CCN(C)C + CNC(=O)c1ccc(Nc2nc(OC3CCCC3)c3c(-c4ccc5nc(C)oc5c4)c[nH]c3n2)c(OC)c1
IC50 (second compound 0.0316 µM): > 300 nM
IC50 (second compound 0.1 µM): 203 nM
IC50 (second compound 0.316 µM): < 0.949 nM
IC50 (second compound 1 µM): < 0.949 nM
IC50 (second compound 3.16 µM): < 0.949 nM
IC50 (second compound 10 µM): < 0.949 nM
viability, T/C (second compound 0.0316 µM, first compound 0.000949 µM): 118%
viability, T/C (second compound 0.0316 µM, first compound 0.003 µM): 109%
viability, T/C (second compound 0.0316 µM, first compound 0.00949 µM): 101%
viability, T/C (second compound 0.0316 µM, first compound 0.03 µM): 93.7%
viability, T/C (second compound 0.0316 µM, first compound 0.0949 µM): 97.9%
viability, T/C (second compound 0.0316 µM, first compound 0.3 µM): 101%
viability, T/C (second compound 0.1 µM, first compound 0.000949 µM): 84.3%
viability, T/C (second compound 0.1 µM, first compound 0.003 µM): 76.1%
viability, T/C (second compound 0.1 µM, first compound 0.00949 µM): 73.1%
viability, T/C (second compound 0.1 µM, first compound 0.03 µM): 68%
viability, T/C (second compound 0.1 µM, first compound 0.0949 µM): 57.4%
viability, T/C (second compound 0.1 µM, first compound 0.3 µM): 46%
viability, T/C (second compound 0.316 µM, first compound 0.000949 µM): 48.7%
viability, T/C (second compound 0.316 µM, first compound 0.003 µM): 46.7%
viability, T/C (second compound 0.316 µM, first compound 0.00949 µM): 45%
viability, T/C (second compound 0.316 µM, first compound 0.03 µM): 43.4%
viability, T/C (second compound 0.316 µM, first compound 0.0949 µM): 39.4%
viability, T/C (second compound 0.316 µM, first compound 0.3 µM): 24.1%
viability, T/C (second compound 1 µM, first compound 0.000949 µM): 37.4%
viability, T/C (second compound 1 µM, first compound 0.003 µM): 36.5%
viability, T/C (second compound 1 µM, first compound 0.00949 µM): 32.7%
viability, T/C (second compound 1 µM, first compound 0.03 µM): 30.3%
viability, T/C (second compound 1 µM, first compound 0.0949 µM): 27%
viability, T/C (second compound 1 µM, first compound 0.3 µM): 18.1%
viability, T/C (second compound 3.16 µM, first compound 0.000949 µM): 36.3%
viability, T/C (second compound 3.16 µM, first compound 0.003 µM): 33.5%
viability, T/C (second compound 3.16 µM, first compound 0.00949 µM): 32.3%
viability, T/C (second compound 3.16 µM, first compound 0.03 µM): 28.6%
viability, T/C (second compound 3.16 µM, first compound 0.0949 µM): 24.8%
viability, T/C (second compound 3.16 µM, first compound 0.3 µM): 17.4%
viability, T/C (second compound 10 µM, first compound 0.000949 µM): 37.2%
viability, T/C (second compound 10 µM, first compound 0.003 µM): 35.6%
viability, T/C (second compound 10 µM, first compound 0.00949 µM): 33%
viability, T/C (second compound 10 µM, first compound 0.03 µM): 32.4%
viability, T/C (second compound 10 µM, first compound 0.0949 µM): 29.3%
viability, T/C (second compound 10 µM, first compound 0.3 µM): 21.1%

CC(Nc1ccc2c(c1)OCCn1cc(N3C(=O)OCC3C(F)F)nc1-2)C(N)=O (centres undefined) + CNC(=O)c1ccc(Nc2nc(OC3CCCC3)c3c(-c4ccc5nc(C)oc5c4)c[nH]c3n2)c(OC)c1
IC50 (second compound 0.0316 µM): 1790 nM
IC50 (second compound 0.1 µM): 41.7 nM
IC50 (second compound 0.316 µM): < 31.6 nM
IC50 (second compound 1 µM): < 31.6 nM
IC50 (second compound 3.16 µM): < 31.6 nM
IC50 (second compound 10 µM): < 31.6 nM
viability, T/C (second compound 0.0316 µM, first compound 0.0316 µM): 86.1%
viability, T/C (second compound 0.0316 µM, first compound 0.1 µM): 93.9%
viability, T/C (second compound 0.0316 µM, first compound 0.316 µM): 63.2%
viability, T/C (second compound 0.0316 µM, first compound 1 µM): 57.6%
viability, T/C (second compound 0.0316 µM, first compound 3.16 µM): 46.6%
viability, T/C (second compound 0.0316 µM, first compound 10 µM): 30.5%
viability, T/C (second compound 0.1 µM, first compound 0.0316 µM): 53.9%
viability, T/C (second compound 0.1 µM, first compound 0.1 µM): 39.9%
viability, T/C (second compound 0.1 µM, first compound 0.316 µM): 35.2%
viability, T/C (second compound 0.1 µM, first compound 1 µM): 29.4%
viability, T/C (second compound 0.1 µM, first compound 3.16 µM): 20.1%
viability, T/C (second compound 0.1 µM, first compound 10 µM): 14.7%
viability, T/C (second compound 0.316 µM, first compound 0.0316 µM): 30.4%
viability, T/C (second compound 0.316 µM, first compound 0.1 µM): 24.3%
viability, T/C (second compound 0.316 µM, first compound 0.316 µM): 16.9%
viability, T/C (second compound 0.316 µM, first compound 1 µM): 11.4%
viability, T/C (second compound 0.316 µM, first compound 3.16 µM): 10.2%
viability, T/C (second compound 0.316 µM, first compound 10 µM): 7.7%
viability, T/C (second compound 1 µM, first compound 0.0316 µM): 20.6%
viability, T/C (second compound 1 µM, first compound 0.1 µM): 16.4%
viability, T/C (second compound 1 µM, first compound 0.316 µM): 12.4%
viability, T/C (second compound 1 µM, first compound 1 µM): 11.2%
viability, T/C (second compound 1 µM, first compound 3.16 µM): 7.78%
viability, T/C (second compound 1 µM, first compound 10 µM): 6.87%
viability, T/C (second compound 3.16 µM, first compound 0.0316 µM): 20.8%
viability, T/C (second compound 3.16 µM, first compound 0.1 µM): 15%
viability, T/C (second compound 3.16 µM, first compound 0.316 µM): 11.1%
viability, T/C (second compound 3.16 µM, first compound 1 µM): 10.6%
viability, T/C (second compound 3.16 µM, first compound 3.16 µM): 7.84%
viability, T/C (second compound 3.16 µM, first compound 10 µM): 5.24%
viability, T/C (second compound 10 µM, first compound 0.0316 µM): 24.5%
viability, T/C (second compound 10 µM, first compound 0.1 µM): 19.6%
viability, T/C (second compound 10 µM, first compound 0.316 µM): 10.9%
viability, T/C (second compound 10 µM, first compound 1 µM): 9.69%
viability, T/C (second compound 10 µM, first compound 3.16 µM): 6.97%
viability, T/C (second compound 10 µM, first compound 10 µM): 4.12%
